One assay concerns SphK. The experiment in a line: SphK activity in aorta and heart of STZ-induced diabetic rats. Format: in vivo, rat. The settings on record: STZ-induced diabetic rats treated with insulin, 2 wk post-onset of diabetes. The procedure:
Male Sprague-Dawley rats weighing 270-290 g were housed in a room under controlled temperature conditions (22° C.) and 12/12-hr of light/dark cycles. Diabetes was induced with 80 mg/kg streptozotocin (STZ) (Sigma-Aldrich) dissolved in citrate buffer (20 mM, pH 4.5) that was administered as a single intraperitoneal injection. Control rats were injected with an equivalent volume of the vehicle only. After injection (24 h), diabetes was diagnosed by the development of hyperglycaemia (>14 mmol/L blood glucose). One-half of the diabetic rats were randomly selected to receive insulin treatment (Linplant, one implant/200 g body wt; LinShin, Canada). Blood glucose levels were monitored every 4 days using Glucostix reagent strips (Boehringer Mannheim, Indianapolis, Ind.). Two weeks after the onset of diabetes, rats were killed for the study. […]
As described previously (Xia et al., 1999, J. Biol. Chem. 274:34499-34505), SphK activity was routinely determined using D-erythro-sphingosine (Biomol, Plymouth Meeting, Pa.) and [γ^32P]ATP (Geneworks, Adelaide, Australia) as substrates, and defined as picomoles of S1P formed per min per mg protein. The formation of S1P in vivo was measured in the permeabilized cells as previously described (Xia et al., 1998, Proc. Natl. Acad. Sci. U.S.A 95:14196-14201).

Assay [1] in a line: Glycemic control in STZ-induced diabetic rats. Format: in vivo, rat. The settings on record: insulin pump, within several hours. How it is done:
Male Sprague-Dawley rats weighing 270-290 g were housed in a room under controlled temperature conditions (22° C.) and 12/12-hr of light/dark cycles. Diabetes was induced with 80 mg/kg streptozotocin (STZ) (Sigma-Aldrich) dissolved in citrate buffer (20 mM, pH 4.5) that was administered as a single intraperitoneal injection. Control rats were injected with an equivalent volume of the vehicle only. After injection (24 h), diabetes was diagnosed by the development of hyperglycaemia (>14 mmol/L blood glucose). One-half of the diabetic rats were randomly selected to receive insulin treatment (Linplant, one implant/200 g body wt; LinShin, Canada). […] […] All experiments were conducted in accordance with the PC-2 procedure of Institute of Medical and Veterinary Science (IMVS) and approved by the IMVS Animal Ethics Committee.

Another assay has as its system sphingosine kinase. The experiment in a line: Sphingosine kinase activity in vitro (vascular endothelial cells). The format is cell-based.

“Also recorded” adds a separate entry of the source.

On to insulin, for which, in the assay on SphK, the “SphK activity in aorta of diabetic rats” value is on record as “significant reduction; also recorded: completely prevented” and the “SphK activity in heart of diabetic rats” value is recorded as “significant reduction; also recorded: completely prevented”. Also, the glycemic control entry in assay [1] is recorded as “near euglycemia”. Further, in the assay on sphingosine kinase, the “inhibitory effect on sphingosine kinase activity in vitro” value is “no inhibitory effect”.

Source of the values: patent publication US20080279897A1, “Method of Treating Cellular Damage” (MEDVET SCIENCE PTY. LTD., priority 2005, published 2008).
